# Measured values from patent publication US12162836B2, “N-acyl-{4-[(4-aryl-phenyl)sulfonylmethyl]piperidine} compounds and their therapeutic use” (Modern Biosciences Limited, priority 2019, dated 2024).
# How the values were obtained:
# CYP3A4 = CYP3A4 (Homo sapiens (Human), UniProt P08684); assay: Human Cytochrome P450 Inhibition Assay (Bactosomes); assay type: in vitro ADME; conditions: recombinant Bactosomes, 10 minutes
# Method: (§1) The ability of test compounds to inhibit five of the most relevant cytochrome P450 enzymes was measured by determination of the activity of cytochrome P450 enzymes in recombinant cytochrome preparations, called Bactosomes (Cypex Ltd, Dundee, Scotland UK DD2 1 NH), in the presence of a specific probe substrate. Bactosomes are a highly efficient and cost-effective source of recombinant CYP450s which have a higher specific activity of enzyme compared to other sources, such as liver microsomes. […] The following CYP450 isoforms were assayed: CYP1A2, CYP2C9, CYP2C19, CYP2D6 and CYP3A4. The study of CYP450 inhibition potential in Bactosomes is accepted as a valuable model permitting rapid prediction of potential drug-drug interactions in vivo (see, e.g., Weaver et al., 2003).
# (§2) Bactosomes were obtained from a commercial source (Cypex, Scotland, UK). Test compounds were incubated with Bactosomes at 6 concentrations. Samples were incubated for 10 minutes, after which the reaction was stopped and the samples analysed by LC-MS/MS Multiple Reaction Monitoring (MRM) for the presence/amount of substrate probe.
# (§3) CYP450 enzymes (final protein 75 pmol/mL for CYP1A2; 12.5 pmol/mL for CYP2C19; and 25 pmol/mL for CYP2C9, 2D6 and 3A4), 0.1 M phosphate buffer pH 7.4, probe and test compound (final concentration 50, 15.8, 5, 1.58, 0.5 and 0.158 μM; diluted from 10 mM stock solution to give a final DMSO concentration of 1%) were pre-incubated at 37° C. for 5 minutes. The reaction was initiated by the addition of 20 μL of 10 mM NADPH in phosphate buffer. The final incubation volume was 200 μL. The following control inhibitors were used for each CYP450 inhibition assay: CYP1A2: α-naphthoflavone; CYP2C9: sulfaphenazole; CYP2C19: tranylcypromine; CYP2D6: quinidine; CYP3A4: ketoconazole.
# (§4) Each compound was incubated for 10 minutes at 37° C. The reactions were stopped by the addition of methanol (final composition 1:1, aqueous: methanol). The incubation plates were shaken, chilled at […] for 2 hours, and centrifuged at 3500 rpm for 15 minutes at 4° C. to precipitate the protein.
# CYP1A2 = CYP1A2 (Homo sapiens (Human), UniProt P05177); assay: as above; assay type: in vitro ADME; conditions: recombinant Bactosomes, 10 minutes; read-out: IC50 CYP1A2
# Sequence of CYP1A2 (P05177 whole entry): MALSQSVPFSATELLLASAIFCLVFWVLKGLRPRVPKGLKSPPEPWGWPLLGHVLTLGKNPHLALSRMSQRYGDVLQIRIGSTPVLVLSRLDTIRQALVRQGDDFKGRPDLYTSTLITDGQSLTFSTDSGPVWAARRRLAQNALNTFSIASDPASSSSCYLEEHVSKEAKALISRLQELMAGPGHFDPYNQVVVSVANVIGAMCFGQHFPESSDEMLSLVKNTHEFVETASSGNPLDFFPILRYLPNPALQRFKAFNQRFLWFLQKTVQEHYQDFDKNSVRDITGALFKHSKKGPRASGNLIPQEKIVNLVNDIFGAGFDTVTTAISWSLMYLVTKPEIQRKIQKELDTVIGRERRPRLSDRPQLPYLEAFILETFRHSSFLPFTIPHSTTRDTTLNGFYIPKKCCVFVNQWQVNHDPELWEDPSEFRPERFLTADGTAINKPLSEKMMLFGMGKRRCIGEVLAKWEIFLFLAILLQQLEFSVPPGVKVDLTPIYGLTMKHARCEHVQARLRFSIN
# Method: as §1, §2, §3, §4
# CYP2D6 = CYP2D6 (Homo sapiens (Human), UniProt P10635); assay: as above; assay type: in vitro ADME; conditions: recombinant Bactosomes, 10 minutes
# Sequence of CYP2D6 (P10635 whole entry): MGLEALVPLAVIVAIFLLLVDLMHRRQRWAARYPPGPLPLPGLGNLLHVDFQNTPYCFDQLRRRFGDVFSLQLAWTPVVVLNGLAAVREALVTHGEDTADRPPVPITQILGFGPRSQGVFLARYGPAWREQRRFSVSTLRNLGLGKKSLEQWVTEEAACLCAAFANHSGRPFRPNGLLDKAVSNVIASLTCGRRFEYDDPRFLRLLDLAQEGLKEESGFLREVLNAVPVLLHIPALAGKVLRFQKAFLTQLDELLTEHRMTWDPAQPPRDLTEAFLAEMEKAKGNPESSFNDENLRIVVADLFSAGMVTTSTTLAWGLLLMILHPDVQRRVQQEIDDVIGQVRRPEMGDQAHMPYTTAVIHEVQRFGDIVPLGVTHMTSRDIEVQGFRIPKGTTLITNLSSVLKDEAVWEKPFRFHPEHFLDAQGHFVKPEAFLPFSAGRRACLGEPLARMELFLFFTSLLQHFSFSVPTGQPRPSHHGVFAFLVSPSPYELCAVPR
# Method: as §1, §2, §3, §4
# CYP2C9 = CYP2C9 (Homo sapiens (Human), UniProt P11712); assay: as above; assay type: in vitro ADME; conditions: recombinant Bactosomes, 10 minutes
# Sequence of CYP2C9 (P11712 whole entry): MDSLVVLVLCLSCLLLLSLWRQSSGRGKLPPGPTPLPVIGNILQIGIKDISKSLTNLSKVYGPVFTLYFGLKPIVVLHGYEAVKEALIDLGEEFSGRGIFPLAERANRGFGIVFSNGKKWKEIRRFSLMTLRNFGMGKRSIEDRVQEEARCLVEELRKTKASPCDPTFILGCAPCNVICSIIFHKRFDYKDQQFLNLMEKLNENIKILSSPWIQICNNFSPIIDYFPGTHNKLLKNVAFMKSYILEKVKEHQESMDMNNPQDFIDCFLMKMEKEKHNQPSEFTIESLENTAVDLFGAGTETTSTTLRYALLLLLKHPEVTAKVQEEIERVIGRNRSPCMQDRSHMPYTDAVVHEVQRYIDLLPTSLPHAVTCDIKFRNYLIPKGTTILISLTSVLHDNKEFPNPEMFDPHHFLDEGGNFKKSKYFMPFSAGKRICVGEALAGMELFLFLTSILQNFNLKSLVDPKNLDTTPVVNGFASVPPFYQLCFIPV
# Method: as §1, §2, §3, §4
# CYP2C19 = CYP2C19 (Homo sapiens (Human), UniProt P33261); assay: as above; assay type: in vitro ADME; conditions: recombinant Bactosomes, 10 minutes
# Sequence of CYP2C19 (P33261 whole entry): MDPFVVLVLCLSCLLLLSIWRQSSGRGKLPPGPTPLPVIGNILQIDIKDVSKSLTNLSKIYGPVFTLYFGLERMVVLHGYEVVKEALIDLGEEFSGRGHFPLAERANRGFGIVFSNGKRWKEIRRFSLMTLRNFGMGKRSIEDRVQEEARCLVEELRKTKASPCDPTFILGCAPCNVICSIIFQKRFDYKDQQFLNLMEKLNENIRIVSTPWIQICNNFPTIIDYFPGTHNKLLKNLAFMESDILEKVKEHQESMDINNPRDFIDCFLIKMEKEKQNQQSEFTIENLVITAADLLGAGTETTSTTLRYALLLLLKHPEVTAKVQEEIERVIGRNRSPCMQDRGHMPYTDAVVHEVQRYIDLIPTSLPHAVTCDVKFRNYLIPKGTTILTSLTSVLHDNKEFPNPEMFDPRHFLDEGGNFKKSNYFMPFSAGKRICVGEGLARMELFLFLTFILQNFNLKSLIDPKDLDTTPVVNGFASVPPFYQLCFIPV
# Method: as §1, §2, §3, §4
# hERG = hERG (Homo sapiens (Human), UniProt Q12809); assay: hERG Ion Channel binding assay (3H astemizole displacement); conditions: human, membranes of HEK293 cells stably expressing hERG, pH 7.4, probe 3H astemizole (1.5 nM); Tested at 25 μM; displacement of 3H astemizole, hERG-HEK293 membranes
# Sequence of hERG (Q12809 whole entry): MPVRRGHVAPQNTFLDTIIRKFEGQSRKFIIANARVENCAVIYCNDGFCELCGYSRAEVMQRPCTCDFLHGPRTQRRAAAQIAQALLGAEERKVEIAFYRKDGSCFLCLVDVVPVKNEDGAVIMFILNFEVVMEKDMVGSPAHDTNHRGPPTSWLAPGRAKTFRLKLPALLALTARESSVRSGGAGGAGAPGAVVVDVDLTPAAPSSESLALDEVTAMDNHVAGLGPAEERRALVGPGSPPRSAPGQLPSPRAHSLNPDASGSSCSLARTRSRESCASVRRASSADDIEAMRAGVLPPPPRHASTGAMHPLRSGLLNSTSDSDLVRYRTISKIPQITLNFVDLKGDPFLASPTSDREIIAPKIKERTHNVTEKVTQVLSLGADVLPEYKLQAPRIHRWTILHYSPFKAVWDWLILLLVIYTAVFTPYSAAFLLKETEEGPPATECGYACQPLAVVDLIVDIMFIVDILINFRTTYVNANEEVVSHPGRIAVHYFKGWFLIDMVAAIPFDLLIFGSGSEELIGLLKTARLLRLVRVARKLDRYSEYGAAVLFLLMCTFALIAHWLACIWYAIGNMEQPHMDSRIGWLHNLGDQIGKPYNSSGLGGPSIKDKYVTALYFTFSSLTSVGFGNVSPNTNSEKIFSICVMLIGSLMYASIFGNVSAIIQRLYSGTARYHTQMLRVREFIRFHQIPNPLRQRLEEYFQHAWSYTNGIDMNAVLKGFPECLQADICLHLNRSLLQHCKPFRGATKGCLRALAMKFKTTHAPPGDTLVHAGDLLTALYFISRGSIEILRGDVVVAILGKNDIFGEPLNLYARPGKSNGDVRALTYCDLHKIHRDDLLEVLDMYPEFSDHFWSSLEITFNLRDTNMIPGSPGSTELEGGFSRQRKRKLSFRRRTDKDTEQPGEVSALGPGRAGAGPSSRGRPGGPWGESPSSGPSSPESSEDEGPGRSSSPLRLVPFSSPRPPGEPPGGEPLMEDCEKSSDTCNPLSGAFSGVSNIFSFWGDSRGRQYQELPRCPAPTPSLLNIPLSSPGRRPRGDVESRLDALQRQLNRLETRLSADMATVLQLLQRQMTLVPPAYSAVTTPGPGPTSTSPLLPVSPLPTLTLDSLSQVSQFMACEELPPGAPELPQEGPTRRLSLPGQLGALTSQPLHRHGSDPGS
# Outline: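 Membranes from stably transfected hERG-HEK293 cells incubated with 1.5 nM ³H-astemizole ± test compound in HEPES buffer pH 7.4 (0.1% BSA, 5 mM KCl, 130 mM NaCl) at 25° C for 60 min. Bound ligand measured by filtration and scintillation counting; reported as % displacement (0% none, 100% complete).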
# [1] = test system: collagen-induced arthritis in DBA/1j mice; assay: Mouse Collagen-Induced Arthritis; assay type: in vivo; conditions: 10 mg/kg/day, once daily for 14 days, oral gavage; arthritic index vs control
# Method: Seven- to eight-week-old male DBA/1j mice were used for all procedures. Animals were housed in groups of 10, and were maintained at 21° C.±2° C. on a 12-hour light/dark cycle with food and water ad libitum. Complete Freund's adjuvant (CFA) was prepared by emulsifying bovine type II collagen at 4 mg/mL with a 4 mg/mL suspension of Mycobacterium tuberculosis H37Ra in Incomplete Freund's Adjuvant (IFA) (0.85 mL paraffin oil and 0.15 mL mannide monooleate) in a 1:1 (v/v) ratio. All mice were immunised subcutaneously with 200 μg of bovine type II collagen in CFA. 21 days later, all mice were immunised subcutaneously with 100 μg of bovine type II collagen in IFA. The mice started to develop signs and symptoms of arthritis following the ‘booster’ immunisation.
# For macroscopic assessment of arthritis, the following signs were monitored in each paw of each mouse three times per week and summed to generate the Arthritic Index (A1) (the maximum A1 for one animal is 16): • 0=no visible effects of arthritis. • 1=oedema and/or erythema of 1 digit. • 2=oedema and/or erythema of 2 digits. • 3=oedema and/or erythema of more than 2 digits. • 4=severe arthritis of entire paw and digits.
# Animals were sorted into treatment groups with a mean arthritic index of 2.5 and then dosed once daily for 14 days with compound: by oral gavage for test compounds, or by subcutaneous injection at a dose of 10 mg/kg for the positive control, etanercept. After completion of the experiment, the mice were sacrificed.
# The data were analysed by generating an average of the arthritic index across each treatment group. The mean arthritic index was then compared to the arthritic index of control (untreated) animals using the following formula to generate a percentage inhibition of disease.
# Sequence of CYP3A4 (P08684 whole entry, canonical isoform): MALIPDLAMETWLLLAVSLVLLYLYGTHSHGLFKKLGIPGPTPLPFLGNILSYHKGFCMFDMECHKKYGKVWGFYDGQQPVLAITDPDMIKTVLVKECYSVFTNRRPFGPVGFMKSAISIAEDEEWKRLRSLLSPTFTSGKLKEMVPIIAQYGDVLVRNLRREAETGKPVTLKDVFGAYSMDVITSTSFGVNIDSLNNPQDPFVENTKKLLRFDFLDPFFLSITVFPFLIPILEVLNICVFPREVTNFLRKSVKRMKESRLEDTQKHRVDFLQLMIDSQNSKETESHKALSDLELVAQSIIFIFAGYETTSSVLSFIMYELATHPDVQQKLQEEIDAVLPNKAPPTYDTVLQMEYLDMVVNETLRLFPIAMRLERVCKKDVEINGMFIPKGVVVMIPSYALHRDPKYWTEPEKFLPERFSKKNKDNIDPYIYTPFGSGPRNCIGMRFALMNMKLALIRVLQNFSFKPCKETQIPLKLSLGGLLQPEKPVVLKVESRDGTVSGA
compound,measurement,setting,value
"C[C@]1(O)CC[C@H](NS(=O)(=O)c2ccc(-c3ccc(Cl)cc3C#N)cc2)CC1 [HMC-C-01-A, reference compound]",IC50,CYP3A4,> 25 µM
same,IC50,CYP1A2,25 µM
same,IC50,CYP2D6,16.6 µM
same,IC50,CYP2C9,21 µM
same,IC50,CYP2C19,> 25 µM
same,"inhibition at 60 min, 25 µM",hERG,18%
same,% inhibition of disease,[1],40%
